US20060116318A1, “Preptin methods of use” (priority 2002, published 2006)
“Also recorded” adds a separate entry of the source. Where two headings read alike, the source gives them in different places.

Experiments:
[1] = test system: primary fetal rat osteoblasts; test: Proliferation (cell number, [3H]-thymidine incorporation) of fetal rat osteoblast-like cells; format: cell-based
Experimental: Osteoblast-Like Cell Culture. Osteoblasts were isolated from 20 day fetal rat calvariae as previously described (Cornish et al. (1999) American Journal of Physiology Endocrinology & Metabolism 277: E779-E783). Briefly, calvariae were excised and the frontal and parietal bones, free of suture and periosteal tissue, were collected. The calvariae were sequentially digested using collagenase and the cells from digests 3 and 4 were collected, pooled and washed. Cells were grown to confluence and then subcultured into 24 well plates. Cells were growth arrested in minimum essential medium (MEM)/0.1% bovine serum albumin for 24 h. Fresh media and experimental compounds were added for a further 24 h. Cells were pulsed with tritiated-thymidine two hours before the end of the experimental incubation. The effect of preptin on proliferation of fetal rat osteoblast-like cells was first assessed by the measurement of cell numbers. The effect of preptin on DNA synthesis in osteoblasts was then assessed by the measurement of [^3H]-thymidine incorporation into isolated fetal rat osteoblast-like cells. There were 6 wells in each group and each experiment was repeated 3 or 4 times.

[2] = test system: murine neonatal calvarial organ culture; test: Thymidine incorporation in murine neonatal calvarial organ culture; format: cell-based, mouse; details: FIG. 3 (rat preptin, two concentrations)
[3] = test system: isolated, perfused rat pancreas; details: infusion into isolated, Buchanan et al. 2001; cited from earlier work
primary rat osteoblasts = test: TUNEL assay of apoptosis in serum-deprived primary rat osteoblasts; format: cell-based; details: 10^−8 M; apoptosis induced by serum deprivation; 18 h; FIG. 6
Experimental: Immunoblotting (Cell Signalling Methods). Primary rat osteoblasts prepared as described above were seeded in 6-well tissue culture plates at an initial density of 5×10^4 cells/mL in MEM 5% FCS, and grown to 80-90% confluence. After serum starvation overnight, cells were treated at room temperature with test substances in MEM 0.1% BSA. In experiments designed to determine the effect of inhibitors of signal transduction on preptin-induced p42/44 MAP kinase phosphorylation, the cells were pre-treated with the inhibitor for 30 min prior to addition of test substances. The exception was pertussis toxin, which was added 18 h prior to test substances. […] The lysates were briefly vortexed, clarified by centrifugation at 13,000 rpm at 4° C., then stored at −70° C. until analyzed. Protein content of the cell lysates was measured using the DC protein assay (BioRad, Hercules, Calif.). […] Incubation with the HRP-conjugated secondary antibody was for 1 h at room temperature, and the membranes were analyzed by ECL. […] Apoptosis in cultures of primary rat osteoblasts was assessed using the TUNEL method (DeadEnd™, Promega, Madison, Wis.) according to the manufacturer's instructions. […] After counterstaining with hematoxylin, the number of apoptotic nuclei per microscopic field was counted and expressed as a proportion of that observed in the cells exposed to serum starvation throughout the entire treatment period. […]

[4] = test system: murine neonatal calavarial organ culture system; test: Bone resorption in murine neonatal calvarial organ culture; format: cell-based, mouse; details: data not shown
[5] = test system: long-term osteoblast cultures; test: Osteoblast differentiation, mineralized bone nodules in long-term osteoblast cultures; format: cell-based; details: 10^−8M
[6] = test system: sexually mature male mice; test: Local subcutaneous injection over the hemicalvaria, histomorphometry; format: in vivo; details: for Bone Area, Mean ± Std Error: twice daily s.c. over right hemicalvaria; for Bone Area, Mean ± Std Error / % Mineralizing Surface/Total Bone Surface, Mean ± Std Error: 5 days; for % Mineralizing Surface/Total Bone Surface, Mean ± Std Error: twice daily s.c.
Experimental: Three groups of sexually mature male mice were given twice daily subcutaneous injections over the right hemicalvaria for 5 consecutive days. Two groups received one of 2 doses of preptin (0.825 μg or 8.25 μg per injection), and a further […] received vehicle. The animals were sacrificed 1 week following the last injection. Fluorochrome labels were injected subcutaneously at the base of the tail on days 1 (calcein), 5 (alizarin red) and 14 (calcein) to measure dynamic histomorphometric indices (such as, extent of mineralizing surface). Calvariae were excised, fixed in 10% neutral-buffered formalin, dehydrated and embedded in methylmethacrylate resin. Sections were cut, mounted on gelatin-coated slides, and histomorphometric indices measured using image analysis.

[7] = test system: murine bone marrow cultures; test: Osteoclastogenesis assay in murine bone marrow cultures (TRAP-positive multinucleated cells); format: cell-based, mouse; details: various concentrations; 7 days; with 1α,25-dihydroxyvitamin D3; FIG. 4
Experimental: The effects of preptin on the development of osteoclasts was also examined. To assess osteoclast development, bone marrow is obtained from the long bones of normal mice, aged 4-6 weeks and cultured. Non-adherent cells are removed and the cultures are grown in the presence of 1α,25-dihydroxyvitamin D3 throughout the experiment. The cultures were maintained for 7 days and the number of tartrate-resistant acid phosphatase-positive multinucleated cells was assessed. An osteoclastogenesis assay was performed with murine bone marrow cultures in the presence of various concentrations of rat preptin. The number of tartrate-resistant acid phosphatase (TRAP)-positive multinucleated cells was assessed (FIG. 4).

[8] = high dose, 16.5 micrograms daily for five days, local s.c. injection
[9] = primary osteoblasts pre-treated with inhibitor, FIG. 5A, 5B

## preptin: 34-amino acid peptide corresponding to Asp69-Leu102 of proinsulin-like growth factor II; species form not always stated
[1]; dose-dependent, primary fetal rat osteoblasts and osteoblast-like cell lines, 24 h, FIGS. 1 and 2 (rat and human preptin)
  concentrations stimulating proliferation (cell number and DNA synthesis): > 10^−11 M
[2]
  thymidine incorporation: stimulated
[3]
  second phase of insulin secretion: significant increase
Primary rat osteoblasts
  apoptosis, treatment/control ratio: 0.78±0.08
[4]
  bone resorption: did not affect bone resorption
[5]
  osteoblast differentiation, number of mineralized bone nodules: significantly increasing the number of mineralized bone nodules
[6]; high dose (8.25 μg per injection), P = 0.013 vs control 1.028 ± 0.023
  Bone Area, Mean ± Std Error: *1.084 ± 0.017
[6]; high dose (8.25 μg per injection), P = 0.046 vs control 1.048 ± 0.013
  % Mineralizing Surface/Total Bone Surface, Mean ± Std Error: *1.119 ± 0.032%
[6]; [8]
  bone area compared to control (in words): significant increase; also recorded: increased
  mineralizing surface compared to control (in words): significant increase; also recorded: increased
[6]; low dose (0.825 μg per injection), control 1.028 ± 0.023
  Bone Area, Mean ± Std Error: 1.083 ± 0.027
[6]; low dose (0.825 μg per injection), control 1.048 ± 0.013
  % Mineralizing Surface/Total Bone Surface, Mean ± Std Error: 1.065 ± 0.033%

## N#CC(=C(/N)Sc1ccccc1N)/C(C#N)=C(\N)Sc1ccccc1N [U-0126]
[1]
  effect of inhibitor pre-treatment on the proliferative effects of preptin: blocked

## COc1cccc(-c2cc(=O)c3ccccc3o2)c1N [PD-98059]
[1]; [9]
  effect of inhibitor pre-treatment on the proliferative effects of preptin: blocked

## DVSTSQAVLPDDFPRYPVGKFFKFDTWRQSAGRL (Rattus) [rat preptin]
[7]
  osteoclast development (number of TRAP-positive multinucleated cells): did not affect osteoclast development

## pertussis toxin
[1]; [9]
  effect of inhibitor pre-treatment on the proliferative effects of preptin: blocked
